Test results from US20220160703A1, “TUMOR-SELECTIVE COMBINATION THERAPY” (The Board of Regents of The University of Texas System, priority 2019, published 2022).

Key:
[1] = test system: MC38 cells with CRISPR-based NQO1 Knockout; test: Cell survival of NQO1 knockout MC38 cells; format: cell-based, murine; settings: 3 hr exposure, survival 48 hr later
Protocol: (FIG. 1A) NQO1 positive tumor cell lines MC38, TC-1 and Ag104Ld and NQO1 negative cell lines Panc02 and B16 grown in 48-well plates were treated with β-lap (0-8 μM) for a 3 hr followed by washing and replacing medium. Cell viability was determined by Sulforhodamine B (SRB) Assay 4 days later. […] (FIG. 1C) MC38 cells with CRISPR-based NQO1 Knockout (MC38 NQO1KO #5) planted in 96-well plates were exposed to β-lap for 3 hr and cell survival was assessed 48 hr later. […] (FIG. 1E) MC38 cells were exposed to a lethal dose of β-lap (4 μM) for indicated times, then stained with 7-AAD and Annexin V followed by flow cytometry analysis. […] (FIG. 1H) MC38 and B16 NQO1 #1 cells were exposed to β-lap for a 3 hr. Catalase (1000 U/ml) was added and cell survival was assessed 48 hr later. […] Tumor growth was monitored twice a week.
FIGS. 17A-I (related to FIGS. 1A-J). […] (FIG. 17A) NQO1 expression in different murine cancer cell lines was determined by western blotting assay. […] Cell viability was determined by Sulforhodamine B (SRB) Assay 48 hr later. […] Cell viability was determined by SRB Assay 48 hr later. […] Catalase (1000 U/ml) was added and cell viability was assessed 48 hr later. […] Tumor growth was monitored twice a week. […] Data are shown as mean±SEM. **P<0.01, ***P<0.001, ****P<0.0001 determined by unpaired student t-test (FIG. 17G) or two-way ANOVA (FIG. 17H and FIG. 17I). […]

A549 tumor = test: A549 xenograft in NSG-SGM3 humanized mouse model; format: in vivo, mice; settings: Hu-NSG-SGM3 versus NSG-SGM3, β-lap 0.2 mg i.t. four times
Protocol: FIGS. 2A-F. β-Lap's antitumor effect is CD8^+ T cell dependent. (FIG. 2A) MC38 cells were subcutaneously transplanted into C57BL/6 WT (n=5-6/group) and Rag1 KO mice (n=5/group), respectively. Tumor bearing mice were treated with β-lap (0.3 mg, i.t.) every other day for four times. Numbers of tumor free mice after treatment were shown. (FIG. 2B) MC38 tumor bearing C57BL/6 mice (n=5/group) were treated with β-lap (0.3 mg, i.t.) every other day for four times. For CD8^+ T cell depletion, 200 μg of anti-CD8 antibodies were intraperitoneally injected four times at three days interval during the treatment. […] (FIG. 2D) Naïve (n=5/group) and β-lap cured MC38 tumor free (n=7/group) C57BL/6 mice were rechallenged subcutaneously with 3×10^6 MC38 cells on the opposite site from the primary tumor 30 days after complete rejection, and tumor growth curve was monitored. […] Tumor growth was measured twice a week. Data are shown as mean±SEM from three independent experiments. **P<0.01, ***P<0.001, ****P<0.0001 determined by two-way ANOVA.
For NSG-SGM3 humanized mouse model, four-week-old NSG-SGM3 female mice were irradiated with 100 cGy (X-ray irradiation with X-RAD 320 irradiator) one day prior to human CD34+ cells transfer. […] Tumor volumes were measured at least twice weekly. […]

SMILES: CC1(C)CCC2=C(O1)c1ccccc1C(=O)C2=O [β-lap, β-lapachone]
- response to β-lap (cell survival) [1]: resistance to β-lap treatment
- tumor control in presence of human immune system (A549 tumor): much better tumor control
